In US20220016115A1, “USP19 INHIBITORS FOR USE IN THERAPY” (ALMAC DISCOVERY LIMITED, priority 2018, published 2022):

Each compound was assayed against T1, USP19 (Homo sapiens, UniProt O94966) (assay: USP19 fluorescence polarisation (FP) homogeneous assay). Settings: Ubiquitin-Lys-TAMRA substrate, full-length USP19 2.5 nM, average of at least two duplicate experiments.
T1 sequence (O94966 1-1318): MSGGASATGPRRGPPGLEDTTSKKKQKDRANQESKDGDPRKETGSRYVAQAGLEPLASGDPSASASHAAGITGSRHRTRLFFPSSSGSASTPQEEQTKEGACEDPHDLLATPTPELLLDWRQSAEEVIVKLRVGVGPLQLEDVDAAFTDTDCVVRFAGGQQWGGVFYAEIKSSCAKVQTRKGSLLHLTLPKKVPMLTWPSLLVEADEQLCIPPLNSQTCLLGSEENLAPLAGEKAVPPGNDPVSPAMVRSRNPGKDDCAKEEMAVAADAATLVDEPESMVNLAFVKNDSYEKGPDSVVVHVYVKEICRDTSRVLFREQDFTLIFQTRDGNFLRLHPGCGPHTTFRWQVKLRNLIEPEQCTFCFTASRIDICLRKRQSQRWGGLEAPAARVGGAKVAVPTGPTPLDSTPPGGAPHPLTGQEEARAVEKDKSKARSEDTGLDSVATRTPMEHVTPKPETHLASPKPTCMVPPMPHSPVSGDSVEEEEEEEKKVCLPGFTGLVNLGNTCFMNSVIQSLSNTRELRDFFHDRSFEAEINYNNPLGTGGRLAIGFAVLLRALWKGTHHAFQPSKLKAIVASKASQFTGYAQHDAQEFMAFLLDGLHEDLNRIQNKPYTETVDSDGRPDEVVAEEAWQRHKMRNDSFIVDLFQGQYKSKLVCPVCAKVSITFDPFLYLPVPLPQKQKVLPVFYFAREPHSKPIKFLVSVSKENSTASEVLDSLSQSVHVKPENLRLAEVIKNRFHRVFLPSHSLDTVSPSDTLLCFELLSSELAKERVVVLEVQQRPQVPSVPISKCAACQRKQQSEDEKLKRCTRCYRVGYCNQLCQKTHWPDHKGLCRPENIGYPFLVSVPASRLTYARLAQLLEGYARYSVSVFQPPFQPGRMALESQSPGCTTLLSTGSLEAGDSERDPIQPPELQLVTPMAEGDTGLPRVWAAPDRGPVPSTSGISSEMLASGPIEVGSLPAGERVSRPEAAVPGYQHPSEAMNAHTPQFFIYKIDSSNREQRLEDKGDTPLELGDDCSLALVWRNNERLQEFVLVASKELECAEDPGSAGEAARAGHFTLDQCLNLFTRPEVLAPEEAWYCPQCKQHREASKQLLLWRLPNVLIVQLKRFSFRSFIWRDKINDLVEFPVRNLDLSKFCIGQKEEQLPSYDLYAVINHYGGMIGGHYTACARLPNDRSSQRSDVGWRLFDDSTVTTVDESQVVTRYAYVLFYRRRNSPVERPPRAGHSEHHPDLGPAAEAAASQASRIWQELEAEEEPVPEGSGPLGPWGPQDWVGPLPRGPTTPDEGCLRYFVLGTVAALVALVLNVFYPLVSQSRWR
Type: biochemical
Parameters: Full-length USP19 was purchased from Boston Biochem (E-576); purchased Boston Biochem E-576
Summary of the method: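 Inhibitors serially diluted in buffer (200 μM to 2 μM, 8-18 points) and preincubated 30 min at RT before starting with 500 nM Ub substrate.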
For C[C@H](CC1CCCCC1)C(=O)N1CC[C@@](O)(Cn2cc(C(=O)N3CCC(O)CC3)c(-c3ccccc3)cc2=O)C(C)(C)C1 [Example 228, 1-(((S)-1-((R)-3-Cyclohexyl-2-methylpropanoyl)-4-hydroxy-3,3-dimethylpiperidin-4-yl)methyl)-5-(4-hydroxypiperidine-1-carbonyl)-4-phenylpyridin-2(1 H)-one], the IC50 was < 500 nM.
In the case of CN(C)C(=O)c1cn(CC2(O)CCN(C(=O)[C@@H]3C[C@@H]3c3ccccc3)CC23CCCC3)c(=O)cc1-c1ccccc1 (stereo partly drawn) [Example 174, 1-((10-Hydroxy-7-((1R,2S)-2-phenylcyclopropane-1-carbonyl)-7-azaspiro[4.5]decan-10-yl)methyl)-N,N-dimethyl-6-oxo-4-phenyl-1,6-dihydropyridine-3-carboxamide], the IC50 is reported as < 500 nM.
In the case of C[C@H](CC1CCCCC1)C(=O)N1CCC(O)(Cn2cc(C(=O)N(C)C)c(-c3ccccc3)cc2=O)C2(CCCCC2)C1 (stereo partly drawn) [Example 237, 1-((2-((R)-3-Cyclohexyl-2-methylpropanoyl)-5-hydroxy-2-azaspiro[5.5]undecan-5-yl)methyl)-N,N-dimethyl-6-oxo-4-phenyl-1,6-dihydropyridine-3-carboxamide], the IC50 is reported as < 500 nM.
In the case of C[C@H](CC1CCCCC1)C(=O)N1CCC(O)(Cn2cnc(-c3ccccc3CN)cc2=O)C(C)(C)C1 (some centres unmarked) [Example 141], the IC50 is reported as < 500 nM.
C[C@H](CC1CCCCC1)C(=O)N1CC[C@@](O)(Cn2cc(C(=O)N3CCNCC3)c(C3CC3)cc2=O)C2(CCCC2)C1 [Example 233, 1-(((S)-7-((R)-3-Cyclohexyl-2-methylpropanoyl)-10-hydroxy-7-azaspiro[4.5]decan-10-yl)methyl)-4-cyclopropyl-5-(piperazine-1-carbonyl)pyridin-2(1H)-one] was tested, and the IC50 was < 500 nM.
In the case of C[C@H](CC1CCCCC1)C(=O)N1CCC(O)(Cn2cnc(-c3ccc(CO)cc3)cc2=O)C(C)(C)C1 (stereo partly drawn) [Example 139, 3-((1-((R)-3-Cyclohexyl-2-methylpropanoyl)-4-hydroxy-3,3-dimethylpiperidin-4-yl)methyl)-6-(4-(hydroxymethyl)phenyl)pyrimidin-4(3H)-one], the IC50 is reported as < 500 nM.
With C[C@H](CC1CCCCC1)C(=O)N1CC[C@@](O)(Cn2cc(C(=O)N3CCNCC3)c(-c3ccccc3F)cc2=O)C2(CCCC2)C1 [Example 227, 1-(((S)-7-((R)-3-Cyclohexyl-2-methylpropanoyl)-10-hydroxy-7-azaspiro[4.5]decan-10-yl)methyl)-4-(2-fluorophenyl)-5-(piperazine-1-carbonyl)pyridin-2(1 H)-one] the IC50 was < 500 nM.
In the case of C[C@H](CC(=O)N1CCC(O)(Cn2cnc(-c3ccccc3)cc2=O)CC1(C)C)c1ccccc1 (mixture of isomers) [Example 61, 3-(((R)-4-Hydroxy-2,2-dimethyl-1-((R)-3-phenylbutanoyl)piperidin-4-yl)methyl)-6-phenylpyrimidin-4(3H)-one and 3-(((S)-4-Hydroxy-2,2-dimethyl-1-((R)-3-phenylbutanoyl)piperidin-4-yl)methyl)-6-phenylpyrimidin-4(3H)-one], the IC50 is reported as 50000 to 250000 nM.
C[C@H](CC(F)(F)F)C(=O)N1CC[C@@](O)(Cn2cnc(-c3ccccc3F)cc2=O)C2(CCCC2)C1 [Example 256, 6-(2-Fluorophenyl)-3-(((S)-10-hydroxy-7-((R)-4,4,4-trifluoro-2-methylbutanoyl)-7-azaspiro[4.5]decan-10-yl)methyl)pyrimidin-4(3H)-one] was tested, and the IC50 was < 500 nM.
For CN(C)C(=O)c1cn(C[C@]2(O)CCN(C(=O)[C@H](CCO)CC3CCCCC3)CC2(C)C)c(=O)cc1-c1ccccc1 [Example 164, 1-(((S)-1-((S)-2-(Cyclohexylmethyl)-4-hydroxybutanoyl)-4-hydroxy-3,3-dimethylpiperidin-4-yl)methyl)-N,N-dimethyl-6-oxo-4-phenyl-1,6-dihydropyridine-3-carboxamide], the IC50 was < 500 nM.
With C[C@H](CC1CCC1)C(=O)N1CC[C@@](O)(Cn2cc(C(=O)N(C)C)c(-c3ccccc3F)cc2=O)C2(CCCC2)C1 [Example 222, 1-(((S)-7-((R)-3-Cyclobutyl-2-methylpropanoyl)-10-hydroxy-7-azaspiro[4.5]decan-10-yl)methyl)-4-(2-fluorophenyl)-N,N-dimethyl-6-oxo-1,6-dihydropyridine-3-carboxamide] the IC50 was < 500 nM.
In the case of C[C@H](CC1CCCCC1)C(=O)N1CCC(O)(Cn2cc(C(=O)N(C)C)c(-c3ccsc3)cc2=O)C2(CCCC2)C1 (stereo partly drawn) [Example 155, 1-((7-((R)-3-Cyclohexyl-2-methylpropanoyl)-10-hydroxy-7-azaspiro[4.5]decan-10-yl)methyl)-N,N-dimethyl-6-oxo-4-(thiophen-3-yl)-1,6-dihydropyridine-3-carboxamide], the IC50 is reported as < 500 nM.
With C[C@H](CC1CCCCC1)C(=O)N1CCC(O)(Cn2cc(C(=O)N(C)C)c(-c3cccc(CO)c3)cc2=O)C2(CCCC2)C1 (stereo partly drawn) [Example 156, 1-((7-((R)-3-Cyclohexyl-2-methylpropanoyl)-10-hydroxy-7-azaspiro[4.5]decan-10-yl)methyl)-4-(3-(hydroxymethyl)phenyl)-N,N-dimethyl-6-oxo-1,6-dihydropyridine-3-carboxamide] the IC50 was < 500 nM.
In the case of CN(C)C(=O)c1cn(C[C@]2(O)CCN(C(=O)[C@H](CO)CC3CCC3)CC2(C)C)c(=O)cc1-c1ccccc1 [Example 166, 1-(((S)-1-((S)-3-Cyclobutyl-2-(hydroxymethyl)propanoyl)-4-hydroxy-3,3-dimethylpiperidin-4-yl)methyl)-N,N-dimethyl-6-oxo-4-phenyl-1,6-dihydropyridine-3-carboxamide], the IC50 is reported as < 500 nM.
For C[C@H](CC1CCCCC1)C(=O)N1CCC(O)(Cn2cc(C(=O)N(C)C)c(N(C)C)cc2=O)C2(CCCC2)C1 (stereo partly drawn) [Example 145, 1-((7-((R)-3-Cyclohexyl-2-methylpropanoyl)-10-hydroxy-7-azaspiro[4.5]decan-10-yl)methyl)-4-(dimethylamino)-N,N-dimethyl-6-oxo-1,6-dihydropyridine-3-carboxamide], the IC50 was < 500 nM.
With C[C@@H]1CN(C(=O)c2cn(C[C@]3(O)CCN(C(=O)[C@H](C)CC4CCCCC4)CC3(C)C)c(=O)cc2-c2ccccc2)CCN1 [Example 213, 1-(((S)-1-((R)-3-Cyclohexyl-2-methylpropanoyl)-4-hydroxy-3,3-dimethylpiperidin-4-yl)methyl)-5-((R)-3-methylpiperazine-1-carbonyl)-4-phenylpyridin-2(1 H)-one] the IC50 was < 500 nM.
CC(CC1CCC1)C(=O)N1CCC(O)(Cn2cc(C(=O)N3CCCCC3)c(-c3ccccc3)cc2=O)CC1 (racemic) [Example 15, (R,S)-1-((3-Cyclobutyl-2-methylpropanoyl)-4-hydroxypiperidin-4-yl)methyl)-4-phenyl-5-(piperidine-1-carbonyl)pyridin-2(1H)-one] gave an IC50 of 5000 to 50000 nM.
With CN(C)C(=O)c1cn(CC2(O)CCN(C(=O)C(O)CC3CCCCC3)CC23CCCC3)c(=O)cc1-c1ccccc1 (centres unmarked) [Example 157, 1-((7-(3-Cyclohexyl-2-hydroxypropanoyl)-10-hydroxy-7-azaspiro[4.5]decan-10-yl)methyl)-N,N-dimethyl-6-oxo-4-phenyl-1,6-dihydropyridine-3-carboxamide] the IC50 was < 500 nM.
Compound CCC(n1cnc(-c2ccccc2)cc1=O)C1(O)CCN(C(=O)[C@H](C)CC2CCCCC2)CC1 (stereo partly drawn) [Example 43, 3-((S)-1-(1-((R)-3-Cyclohexyl-2-methylpropanoyl)-4-hydroxypipendin-4-yl)propyl)-6-phenylpyrimidin-4(3H)-one and 3-((R)-1-(1-((R)-3-cyclohexyl-2-methylpropanoyl)-4-hydroxypipendin-4-yl)propyl)-6-phenylpyrimidin-4(3H)-one] has an IC50 of 5000 to 50000 nM.
With C[C@H](CC1CCCCC1)C(=O)N1CC[C@@](O)(Cn2cc(C(=O)N3CCNCC3)c(-c3ccccc3)cc2=O)C2(CCCC2)C1 [Example 212, 1-(((S)-7-((R)-3-Cyclohexyl-2-methylpropanoyl)-10-hydroxy-7-azaspiro[4.5]decan-10-yl)methyl)-4-phenyl-5-(piperazine-1-carbonyl)pyridin-2(1H)-one] the IC50 was < 500 nM.
